Data on one substance can be found in US20260263623A1, “STAPLED PEPTIDE-ANTIBODY CONJUGATES (SPACS) AND USES THEREOF” (priority 2021, published 2026).

Test [1] has as its system MCF7 cell line with low HER2 expression (HER2+), p53 WT. Briefly: 72 hour cytotoxicity assay (CellTiter-Glo), MCF7. Format: cell-based. The note with it: wild-type p53 (sensitive to MDM2 inhibition), FIG. 6A. The protocol: (§1) Cell culture: Cell lines were maintained in appropriate medium supplemented with fetal bovine serum to a final concentration of 10%.
(§2) 72 hour cytotoxicity assay: Cells were plated in a 96-well format, and after 24 hour incubation, serial dilutions of SPACs from a 1 mg/mL stock, or vehicle, were then added to the cells in a final volume of 100 μl. After incubating at 37° C. for 72 hours, 100 μl of CellTiter-Glo® reagent was added to the cells, and the plates were incubated 15 minutes at room temperature. Luminescence was then measured on a microplate reader.

The subject of test [2] is HER2+++ p53 mut breast cancer cell line (SK-BR-3). Briefly: 72 hour cytotoxicity assay (CellTiter-Glo), SK-BR-3. Format: cell-based. To be noted: SK-BR-3, highly expresses HER2, mutated p53 (insensitive to MDM2 inhibition); FIG. 6B. On the procedure:
as §1, §2

On to Trastuzumab emtansine, for which the anti-proliferative activity result in test [1] is listed as “no activity”. In test [2], the “activity (efficacy vs concentration)” value is recorded as “shows efficacy at relatively low concentration”.
